Assay results published in publication PMC6145916, “Interaction of mitochondrial fission factor with dynamin related protein 1 governs physiological mitochondrial function in vivo” (Scientific Reports, 2018).
Where no end group is shown, it is not given here.

Legend:
wild-type mice [1] = assay: ATP content in brain tissue; assay type: in vivo, mouse; details: 3 mg/Kg/day, subcutaneous osmotic pump, 8 weeks, WT mice; n = 4 mice, 2 replicates
Text: (§1) (a) Quantification of mitochondrial Drp1 content relative to ALDH2 (a mitochondrial matrix enzyme) in the mitochondrial fraction isolated from total brain lysate of wild-type mice (Western blot shown in Fig. S3B) (n = 4 mice). (b) ATP content in brain tissue of wild-type mice (n = 4 mice, 2 replicates). (c) Representative transmission electron microscopy images of the striatum from wild-type mice. […] The first principal component represents 42% of the variation. (f) Local linear embedding dimensionality reduction and visualization of all behaviors collected weekly from TAT- (black) or P259- (purple) treated WT and TAT- (white) treated R6/2 mice over the course of 8 weeks. […] All behavior and survival tests were conducted by an experienced observer who was blinded to the treatment groups. Data are mean ± s.e.
(§2) Five-week old R6/2 HD mice and their wild-type littermates (a total of 60 mice) were implanted subcutaneously with a 28-d Alzet osmotic pump with either P259-TAT or TAT control peptide (15 mice per group) to be delivered continuously at a rate of 3 mg/Kg/day, as previously described. All mice were implanted twice for a total of an 8-week treatment. 20 of the WT mice were implanted 3 times for a total of a 12-week treatment at 3 mg/Kg/day. […]
To quantify mitochondrial motility, the images at time 0 and 150 seconds w ere overlaid. […]

wild-type mice [2] = assay: Open-field activity chamber behavior; assay type: in vivo, mouse; details: 3 mg/Kg/day
Text: as §1
as §2, with “mg/Kg/day. All the experiments were in accordance with protocols approved by the Institutional Animal Care and Use Committee of Stanford University and were performed based on the National Institutes of Health Guide for the Care and Use of Laboratory Animals. All methods were carried out in accordance with the relevant guidelines and regulations.” for “mg/Kg/day.”
Survival and behavioral mice studies […]
All behavior and […]
survival tests were conducted by an experienced ob server who was blinded to the treatment groups.
Behavioral tests were administered weekly in an open-field activity arena (Med Associate s Inc, St.
Albans, VT. Model ENV-515) equipped with three planes of infrared detectors within a sound-proof chamber (Med Associates Inc., St. Albans, VT. MED-017-027), as described previously.12 Each mouse was placed in a corner of the chamber and was tracked for a period of 15 minutes.
The following activities were recorded: digging duration, grooming duration, climbing duration, rearing duration, seizure frequency, average velocity, active behaviors, total distance moved, jump counts/time, ambulatory counts/distance/time, latency towards center, stereotypic time/counts, resting time, vertical counts/time, and zone entries (center/periphery).
Dimensionality reduction of mouse behavior data
The collection of weekly behavior parameters for wild-type mice treated with P259 or the TAT control was assembled into a vector with a total of 180 behavior parameters per mouse. The top 20% of parameters contributing to treatment classification were filtered by using a combination of the ANOVA F- and the mutual information scores for each behavior. The filtered dataset was normalized and principal component analysis was performed using the Python scikit-learn package. An eigenvector was extracted to determine the contribution of each behavior to the first […]
treated wild-type mice and control-treated R6/2 mice during the eight-week treatment were assembled into a single vector for each mouse. The dataset was normalized and local linear embedding from the Python scikit-learn package was used to reduce the dimensionality of and visualize the behavior parameters.

[3] = 8-week treatment, WT mice, n = 10 mice

Substance: YGRKKRRQRRRGSGIIQLPEIVVV-NH2 (C-terminus assumed) [P259]
- decrease in ATP levels in the brain (wild-type mice [1]): 30%
- active mouse behaviors (wild-type mice [2]; [3]): less active
- jumping and climbing (wild-type mice [2]; [3]): jumped and climbed less frequently
- total distance moved (wild-type mice [2]; [3]): travelled for a shorter distance
- behavior profile, principal component analysis (top 20% of behaviors) (wild-type mice [2]; 12 weeks, WT mice, vs TAT): successfully separated the behavior profile of P259- and TAT control-treated mice
- jump counts/time, periphery-to-center transition, movement counts, stereotypic time (wild-type mice [2]; WT mice, tested weekly, 12 weeks, vs TAT-treated mice): performed worse than TAT-treated mice
- aggregate behavior score (local linear embedding) (wild-type mice [2]; weekly over 8 weeks, P259-treated WT vs TAT-treated WT and TAT-treated R6/2 mice): intermediate aggregate behavior score between WT- and R6/2 control-treated mice
